Experimental data from article PMC11292196 (Cancer Research, 2024).
Where two headings read alike, the source gives them in different places.

Key:
J82 cells = test: Cell viability assay; type: cell-based; conditions: read-out: Cisplatin GI50 (d5), 5-day viability assay
Cal29 cells = test: Cell viability assay; type: cell-based; conditions: read-out: Cisplatin GI50 (d5), 5-day viability assay
HT1376 cells = test: Cell viability assay; type: cell-based
JMSU1 cells = test: Cell viability assay; type: cell-based; conditions: read-out: Cisplatin GI50 (d5), 5-day viability assay
KMBC2 cells = test: Cell viability assay; type: cell-based; conditions: read-out: Cisplatin GI50 (d5), 5-day viability assay
SW1710 cells = test: Cell viability assay; type: cell-based; conditions: read-out: Cisplatin GI50 (d5), 5-day viability assay
HT1197 cells = test: Cell viability assay; type: cell-based; conditions: read-out: Cisplatin GI50 (d5), 5-day viability assay
TCCSUP cells = test: Cell viability assay; type: cell-based; conditions: read-out: Cisplatin GI50 (d5), 5-day viability assay
SCaBER cells = test: Cell viability assay; type: cell-based; conditions: read-out: Cisplatin GI50 (d5), 5-day viability assay
UMUC3 cells = test: Cell viability assay; type: cell-based; conditions: read-out: Cisplatin GI50 (d5), 5-day viability assay
BFTC905 cells = test: Cell viability assay; type: cell-based; conditions: read-out: Cisplatin GI50 (d5), 5-day viability assay
T24 cells = test: Cell viability assay; type: cell-based; conditions: read-out: Cisplatin GI50 (d5), 5-day viability assay
RT4 cells = test: Cell viability assay; type: cell-based; conditions: read-out: Cisplatin GI50 (d5), 5-day viability assay
[1] = tested on: KARPAS-422 xenograft tumors; test: KARPAS-422 xenograft efficacy study; type: in vivo; conditions: KARPAS-422 mouse xenograft model; 25 mg/kg, PO, QD
[2] = read-out: GI50, long-term cell viability assay, HT1376 cells, day 18

For `N.N.[Cl][Pt][Cl]` [Cisplatin], the GI50 (J82 cells) was 450 nM, the GI50 (Cal29 cells) was 3010 nM and the GI50 (HT1376 cells; read-out: Cisplatin GI50 (d5), HT1376, 5-day viability assay) was 1950 nM. The GI50 (JMSU1 cells) was 730 nM, the GI50 (KMBC2 cells) was 3640 nM and the GI50 (SW1710 cells) was 2150 nM. For the same compound, the GI50 (HT1197 cells) was 3880 nM, the GI50 (TCCSUP cells) was 220 nM and the GI50 (SCaBER cells) was 1200 nM. For the same compound, the GI50 (UMUC3 cells) was 350 nM, the GI50 (BFTC905 cells) was 760 nM and the GI50 (T24 cells) was 810 nM. The GI50 (RT4 cells) was 3050 nM.
For `Cc1ncccc1-c1cnc(NCc2c(F)ccc3c2CCO3)n2cnnc12` [MAK683], the GI50 (HT1376 cells; [2]) was 73 nM.
`COc1cc(C)[nH]c(=O)c1CN1CCc2c(Cl)cc([C@H](OC)C3COC3)c(Cl)c2C1=O` [PF-06821497] gave a GI50 (HT1376 cells; [2]) of roughly 5 nM.
`CCN(c1cc(-c2ccc(CN3CCOCC3)cc2)cc(C(=O)NCc2c(C)cc(C)[nH]c2=O)c1C)C1CCOCC1` [Tazemetostat] was tested, and the “tumor response” value [1] was “modest TGI”.
